Drawing on patent publication US10351575B2, “Bicyclic urea, thiourea, guanidine and cyanoguanidine compounds useful for the treatment of pain” (Array BioPharma Inc., priority 2012, dated 2019), this text covers IC50 for 29 molecules.

Chain of His-tagged recombinant human TrkA (P04629 440-796): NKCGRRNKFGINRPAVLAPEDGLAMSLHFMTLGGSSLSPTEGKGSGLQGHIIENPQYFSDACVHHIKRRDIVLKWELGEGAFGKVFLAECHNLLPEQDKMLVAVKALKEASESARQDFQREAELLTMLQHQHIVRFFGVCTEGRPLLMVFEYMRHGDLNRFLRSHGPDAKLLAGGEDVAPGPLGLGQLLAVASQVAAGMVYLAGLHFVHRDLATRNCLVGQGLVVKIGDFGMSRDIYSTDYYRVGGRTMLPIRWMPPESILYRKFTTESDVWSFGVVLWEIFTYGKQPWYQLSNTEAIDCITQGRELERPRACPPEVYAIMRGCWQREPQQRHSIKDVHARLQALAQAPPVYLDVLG

The assay addresses His-tagged recombinant human TrkA (Homo sapiens (Human), UniProt P04629). Nature of the assay: TrkA LanthaScreen Eu Kinase Binding Assay. Conditions: averaged IC50; TR-FRET binding, 60 min, 22° C.; read-out: TrkA Enzyme IC50. The protocol: TrkA binding activity was determined in a TrkA LanthaScreen™ Eu Kinase Binding Assay. 5 nM His-tagged recombinant human TrkA (6HIS tagged cytoplasmic domain from Invitrogen, Catalog No. PV3144) was incubated with 4 nM Alexa-Fluor® Tracer 236 (Invitrogen Cat. No. PV5592), 2 nM biotinylated anti-His (Invitrogen Cat. No. PV6090), and 2 nM europium-labeled Streptavidin (Invitrogen Cat. No. PV5899), in buffer (25 mM MOPS, pH 7.5, 5 mM MgCl2, 0.005% Triton X-100). Three fold serial dilutions of compounds of the invention in DMSO were added to a final percentage of 2% DMSO. After 60-minute incubation at 22° C., the reaction was measured using the EnVision mutlimode plate reader (PerkinElmer) via TR-FRET dual wavelength detection at […]. The percent of control was calculated using a ratiometric emission factor. The IC50 values were determined by fitting a four parameter model to the percent of control data.
In general terms: In TR-FRET formats the signal depends on donor and acceptor labels being close together.
Broadly, the IC50 is the concentration at which inhibition is half-maximal. Take `COCCN1Cc2ccccc2C(NC(=O)Nc2c3c(nn2-c2ccccc2)CCC3)C1` (centres unmarked) [Example 23, 1-(2-(2-methoxyethyl)-1,2,3,4-tetrahydroisoquinolin-4-yl)-3-(2-phenyl-2,4,5,6-tetrahydrocyclopenta[c]pyrazol-3-yl)urea]: the half-inhibitory concentration (IC50) was in the range of 100 to 1000 nM. Next, `CC(=O)N1Cc2ccccc2C(NC(=O)Nc2c3c(nn2-c2ccccc2)CCC3)C1` (centres unmarked) [Example 24, 1-(2-acetyl-1,2,3,4-tetrahydroisoquinolin-4-yl)-3-(2-phenyl-2,4,5,6-tetrahydrocyclopenta[c]pyrazol-3-yl)urea]: 100 to 1000 nM; `Cc1c(-c2cnn(C)c2)nn(-c2ccccc2)c1NC(=O)NC1CN(CC(F)(F)F)Cc2ccccc21` (centres unmarked) [Example 25, 1-(1′,4-dimethyl-1-phenyl-1H,1′H-3,4′-bipyrazol-5-yl)-3-(2-(2,2,2-trifluoroethyl)-1,2,3,4-tetrahydroisoquinolin-4-yl)urea]: below 100 nM; `Cc1c(-c2cn(C)cn2)nn(-c2ccccc2)c1NC(=O)NC1CN(CC(F)(F)F)Cc2ccccc21` (centres unmarked) [Example 27, 1-(4-methyl-3-(1-methyl-1H-imidazol-4-yl)-1-phenyl-1H-pyrazol-5-yl)-3-(2-(2,2,2-trifluoroethyl)-1,2,3,4-tetrahydroisoquinolin-4-yl)urea]: below 100 nM. Take `O=C(Nc1c2c(nn1-c1ccccc1)CCC2)NC1CN(CC(F)(F)F)Cc2ccccc21` (centres unmarked) [Example 28, 1-(2-phenyl-2,4,5,6-tetrahydrocyclopenta[c]pyrazol-3-yl)-3-(2-(2,2,2-trifluoroethyl)-1,2,3,4-tetrahydroisoquinolin-4-yl)urea]: the IC50 was below 100 nM. The same measure for `CNC(=O)c1nn(-c2ccccc2)c(NC(=O)NC2CN(CC(F)(F)F)Cc3ccccc32)c1C` (centres unmarked) [Example 29, N,4-dimethyl-1-phenyl-5-(3-(2-(2,2,2-trifluoroethyl)-1,2,3,4-tetrahydroisoquinolin-4-yl)ureido)-1H-pyrazole-3-carboxamide]: below 100 nM.

Consider `Cc1c(NC(=O)NC2CN(CC(F)(F)F)Cc3ccccc32)n(-c2ccccc2)[nH]c1=O` (centres unmarked) [Example 30, 1-(4-methyl-5-oxo-2-phenyl-2,5-dihydro-1H-pyrazol-3-yl)-3-(2-(2,2,2-trifluoroethyl)-1,2,3,4-tetrahydroisoquinolin-4-yl)urea], for which the IC50 is below 100 nM. The same measure for `Cc1nn(-c2ccccc2)c(NC(=O)NC2CN(CC(F)(F)F)Cc3ccccc32)c1C(N)=O` (centres unmarked) [Example 31, 3-methyl-1-phenyl-5-(3-(2-(2,2,2-trifluoroethyl)-1,2,3,4-tetrahydroisoquinolin-4-yl)ureido)-1H-pyrazole-4-carboxamide]: below 100 nM; for `Cc1c(-c2cnn(C)c2)nn(-c2ccccc2)c1NC(=O)NC1CC(C2CC2)Oc2ccc(Br)cc21` (centres unmarked) [Example 33, 1-(6-bromo-2-cyclopropylchroman-4-yl)-3-(1′,4-dimethyl-1-phenyl-1H,1′H-[3,4′-bipyrazo]-5-yl)urea]: below 100 nM; for `Cc1c(-c2cnn(C)c2)nn(-c2ccccc2)c1NC(=O)NC1CC2(CCC2)Oc2ccc(Br)cc21` (centres unmarked) [Example 34, 1-(6-bromospiro[chroman-2,1′-cyclobutan]-4-yl)-3-(1′,4-dimethyl-1-phenyl-1H,1′H-[3,4′-bipyrazol]-5-yl)urea]: below 100 nM. The same measure for `COCc1ccc2c(c1)C(NC(=O)Nc1c(C)c(-c3cnn(C)c3)nn1-c1ccccc1)CC1(CCC1)O2` (centres unmarked) [Example 35A, 1-(1′,4-dimethyl-1-phenyl-1H,1′H-[3,4′-bipyrazol]-5-yl)-3-(6-(methoxymethyl)spiro[chroman-2,1′-cyclobutan]-4-yl)urea]: below 100 nM; for `Cc1c(-c2cnn(C)c2)nn(-c2ccccc2)c1NC(=O)NC1CC2(CCC2)Oc2ccccc21` (centres unmarked) [Example 35B, 1-(1′,4-dimethyl-1-phenyl-1H,1′H-[3,4′-bipyrazol]-5-yl)-3-(spiro[chroman-2,1′-cyclobutan]-4-yl)urea]: 100 to 1000 nM; for `Cc1c(-c2cnn(C)c2)nn(-c2ccccc2)c1NC(=O)NC1CCC(=O)c2ccccc21` (centres unmarked) [Example 36, 1-(1′,4-dimethyl-1-phenyl-1H,1′H-[3,4′-bipyrazol]-5-yl)-3-(4-oxo-1,2,3,4-tetrahydronaphthalen-1-yl)urea]: 100 to 1000 nM. Next, `Cc1c(-c2cnn(C)c2)nn(-c2ccccc2)c1NC(=O)NC1CCC(C)(O)c2ccccc21` (centres unmarked) [Example 37, 1-(1′,4-dimethyl-1-phenyl-1H,1′H-[3,4′-bipyrazol]-5-yl)-3-(4-hydroxy-4-methyl-1,2,3,4-tetrahydronaphthalen-1-yl)urea]: 100 to 1000 nM; `Cc1c(-c2cnn(C)c2)nn(-c2ccccc2)c1NC(=O)Nc1cn(CC(F)(F)F)c(=O)c2ccccc12` [Example 38, 1-(1′,4-dimethyl-1-phenyl-1H,1′H-[3,4′-bipyrazol]-5-yl)-3-(1-oxo-2-(2,2,2-trifluoroethyl)-1,2-dihydroisoquinolin-4-yl)urea]: 100 to 1000 nM; `COc1nn(-c2ccccc2)c(NC(=O)NC2CCN(C)c3ccccc32)c1C` (centres unmarked) [Example 39, 1-(3-methoxy-4-methyl-1-phenyl-1H-pyrazol-5-yl)-3-(1-methyl-1,2,3,4-tetrahydroquinolin-4-yl)urea]: below 100 nM. With `Cc1c(-c2cnn(C)c2)nn(-c2ccccc2)c1NC(=O)NC1CCN(C)c2ccccc21` (centres unmarked) [Example 40, 1-(1′,4-dimethyl-1-phenyl-1H,1′H-[3,4′-bipyrazol]-5-yl)-3-(1-methyl-1,2,3,4-tetrahydroquinolin-4-yl)urea], the IC50 was in the range of 100 to 1000 nM. Take `Cc1c(-c2ccc(=O)n(C)c2)nn(-c2ccccc2)c1NC(=O)NC1CCN(C)c2ccccc21` (centres unmarked) [Example 41, 1-(1-methyl-1,2,3,4-tetrahydroquinolin-4-yl)-3-(4-methyl-3-(1-methyl-6-oxo-1,6-dihydropyridin-3-yl)-1-phenyl-1H-pyrazol-5-yl)urea]: the IC50 is below 100 nM. The same measure for `CCN1CCC(NC(=O)Nc2c(C)c(-c3ccc(=O)n(C)c3)nn2-c2ccccc2)c2ccccc21` (centres unmarked) [Example 42, 1-(1-ethyl-1,2,3,4-tetrahydroquinolin-4-yl)-3-(4-methyl-3-(1-methyl-6-oxo-1,6-dihydropyridin-3-yl)-1-phenyl-1H-pyrazol-5-yl)urea]: below 100 nM; for `Cc1c(-c2ccc(=O)n(C)c2)nn(-c2ccccc2)c1NC(=O)NC1CCN(C)c2c(F)cccc21` (centres unmarked) [Example 43, 1-(8-fluoro-1-methyl-1,2,3,4-tetrahydroquinolin-4-yl)-3-(4-methyl-3-(1-methyl-6-oxo-1,6-dihydropyridin-3-yl)-1-phenyl-1H-pyrazol-5-yl)urea]: 100 to 1000 nM. For `Cc1c(-c2ccc(=O)n(C)c2)nn(-c2ccccc2)c1NC(=O)NC1CCN(C)c2c(F)cc(Cl)cc21` (centres unmarked) [Example 44, 1-(6-chloro-8-fluoro-1-methyl-1,2,3,4-tetrahydroquinolin-4-yl)-3-(4-methyl-3-(1-methyl-6-oxo-1,6-dihydropyridin-3-yl)-1-phenyl-1H-pyrazol-5-yl)urea], the half-inhibitory concentration (IC50) was below 100 nM. The same measure for `CCN1CCC(NC(=O)Nc2c(C)c(-c3ccc(=O)n(C)c3)nn2-c2ccccc2)c2cc(Cl)ccc21` (centres unmarked) [Example 45, 1-(6-chloro-1-ethyl-1,2,3,4-tetrahydroquinolin-4-yl)-3-(4-methyl-3-(1-methyl-6-oxo-1,6-dihydropyridin-3-yl)-1-phenyl-1H-pyrazol-5-yl)urea]: below 100 nM; for `CCN1CCC(NC(=O)Nc2c(C)c(OC)nn2-c2ccccc2)c2cc(Cl)ccc21` (centres unmarked) [Example 46, 1-(6-chloro-1-ethyl-1,2,3,4-tetrahydroquinolin-4-yl)-3-(3-methoxy-4-methyl-1-phenyl-1H-pyrazol-5-yl)urea]: below 100 nM. The same measure for `CO[C@H]1Cc2ccccc2[C@@H]1NC(=O)Nc1c2c(nn1-c1ccccc1)CCC2` [Example 47, 1-((1S,2S)-2-methoxy-2,3-dihydro-1H-inden-1-yl)-3-(2-phenyl-2,4,5,6-tetrahydrocyclopenta[c]pyrazol-3-yl)urea]: 100 to 1000 nM. Turning to `COCCO[C@H]1Cc2ccccc2[C@@H]1NC(=O)Nc1c2c(nn1-c1ccccc1)CCC2` [Example 48, 1-((1S,2S)-2-(2-methoxyethoxy)-2,3-dihydro-1H-inden-1-yl)-3-(2-phenyl-2,4,5,6-tetrahydrocyclopenta[c]pyrazol-3-yl)urea], the IC50 lay in the range of 100 to 1000 nM.

Take `CCOc1nn(-c2ccccc2)c(NC(=O)N[C@H]2c3ccccc3C[C@@H]2OCCOC)c1C` [Example 49, 1-(3-ethoxy-4-methyl-1-phenyl-1H-pyrazol-5-yl)-3-((1S,2S)-2-(2-methoxyethoxy)-2,3-dihydro-1H-inden-1-yl)urea]: the IC50 is 100 to 1000 nM. On to `COCCO[C@@H]1Cc2ccccc2[C@H]1NC(=O)Nc1c2c(nn1-c1ccccc1)CCC2` [Example 50, 1-((1R,2R)-2-(2-methoxyethoxy)-2,3-dihydro-1H-inden-1-yl)-3-(2-phenyl-2,4,5,6-tetrahydrocyclopenta[c]pyrazol-3-yl)urea], for which the 50% inhibitory concentration (IC50) was 100 to 1000 nM. `COCCO[C@H]1Cc2ccccc2[C@@H]1NC(=O)Nc1c(C)c(-c2cnn(C)c2)nn1-c1ccccc1` [Example 51, 1-(1′,4-dimethyl-1-phenyl-1H,1′H-[3,4′-bipyrazol]-5-yl)-3-((1S,2S)-2-(2-methoxyethoxy)-2,3-dihydro-1H-inden-1-yl)urea]: the IC50 fell in the range of 100 to 1000 nM. Next, `COCCO[C@H]1Cc2ccccc2[C@@H]1NC(=O)Nc1c(Br)c(C)nn1-c1ccccc1` [Example 52, 1-(4-bromo-3-methyl-1-phenyl-1H-pyrazol-5-yl)-3-((1S,2S)-2-(2-methoxyethoxy)-2,3-dihydro-1H-inden-1-yl)urea]: 100 to 1000 nM.
